The source made the active and inactive calls. The rule behind the calls is not given here.
Legend:
[1] = Metabolic stability in human liver microsomes assessed as intrinsic clearance at 100 uM preincubated for 10 mins followed by NADPH addition by LC/MS analysis; assay type: ADME, Microsome; details: read-out: CLH
[2] = Metabolic stability in Sprague-Dawley rat liver microsomes assessed as intrinsic clearance at 100 uM preincubated for 10 mins followed by NADPH addition by LC/MS analysis; assay type: ADME, Microsome; details: read-out: CLH
[3] = target: T1, 5-hydroxytryptamine receptor 2A (Homo sapiens, UniProt P28223); experiment: Inverse agonist activity at 5-HT2A receptor (unknown origin) expressed in mouse NIH3T3 cells using o-nitrophenyl-D-galacto pyranoside incubated for 120 hrs; assay type: functional, cell-based
T1 sequence (P28223 whole entry): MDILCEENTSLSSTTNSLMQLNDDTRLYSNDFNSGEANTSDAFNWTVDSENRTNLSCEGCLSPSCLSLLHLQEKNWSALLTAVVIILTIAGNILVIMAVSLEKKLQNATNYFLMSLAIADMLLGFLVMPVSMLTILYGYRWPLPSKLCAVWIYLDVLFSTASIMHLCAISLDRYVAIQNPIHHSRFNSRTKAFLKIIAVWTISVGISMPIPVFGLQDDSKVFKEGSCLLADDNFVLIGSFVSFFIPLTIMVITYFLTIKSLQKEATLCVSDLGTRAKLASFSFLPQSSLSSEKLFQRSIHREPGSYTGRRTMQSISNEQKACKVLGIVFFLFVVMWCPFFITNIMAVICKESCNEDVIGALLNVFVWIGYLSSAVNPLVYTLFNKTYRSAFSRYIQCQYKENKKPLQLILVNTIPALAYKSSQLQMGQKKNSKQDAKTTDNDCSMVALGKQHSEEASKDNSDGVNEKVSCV

[4] = target: T1, 5-hydroxytryptamine receptor 2A; experiment: Antagonist activity at 5-HT2A receptor (unknown origin) expressed in CHO-K1 cells assessed as reduction in intracellular Ca2+ mobilization incubated for 15 mins by FLIPR assay; assay type: functional, cell-based
[5] = Metabolic stability in Sprague-Dawley rat liver microsomes assessed as half life at 100 uM preincubated for 10 mins followed by NADPH addition by LC/MS analysis; assay type: ADME, Microsome
[6] = Metabolic stability in Sprague-Dawley rat liver microsomes assessed as compound remaining at 100 uM […] followed by NADPH addition by LC/MS analysis; assay type: ADME, Microsome; details: read-out: Stability
[7] = Metabolic stability in human liver microsomes assessed as compound remaining at 100 uM […] followed by NADPH addition by LC/MS analysis; assay type: ADME, Microsome; details: read-out: Stability
[8] = Metabolic stability in human liver microsomes assessed as half life at 100 uM preincubated for 10 mins followed by NADPH addition by LC/MS analysis; assay type: ADME, Microsome
[9] = system: Rattus norvegicus; experiment: Antiparkinson's activity in rat assessed as reduction in DOI-induced head-twitching at 1.5 to 6 micromol/kg, IG measured after 1 hr; assay type: functional, organism-based; details: dose 1.5-6 µmol/kg
[10] = target: T1, 5-hydroxytryptamine receptor 2A; experiment: Potency index, ratio of pimavanserin IC50 to test compound IC50 for inverse agonist activity at 5-HT2A receptor (unknown origin) expressed in mouse NIH3T3 cells using o-nitrophenyl-D-galacto pyranoside incubated for 120 hrs; assay type: cell-based
[11] = target: T1, 5-hydroxytryptamine receptor 2A; experiment: Potency index, ratio of pimavanserin IC50 to test compound IC50 for antagonist activity at 5-HT2A receptor (unknown origin) expressed in CHO-K1 cells assessed as reduction in intracellular Ca2+ mobilization incubated for 15 mins by FLIPR assay; assay type: functional, cell-based
[12] = system: Rattus norvegicus; experiment: Antiparkinson's activity in rat assessed as reduction of DOI-induced head-twitching at 6 micromol/kg, IG measured after 1 hr; assay type: functional, organism-based; details: dose 6.0 µmol/kg
[13] = AUClast in Sprague-Dawley rat at 3 mg/kg, IG measured upto 24 hrs by LC-MS/MS analysis; assay type: ADME, organism-based; parameters: time < 24 hrs, dose 3 mg/kg, route ig; details: in vivo, po
[14] = Half life in Sprague-Dawley rat at 3 mg/kg, IG measured upto 24 hrs by LC-MS/MS analysis; assay type: ADME, organism-based; details: in vivo, po
[15] = MRTlast in Sprague-Dawley rat at 3 mg/kg, IG measured upto 24 hrs by LC-MS/MS analysis; assay type: ADME, organism-based; details: in vivo, po
[16] = Cmax in Sprague-Dawley rat at 3 mg/kg, IG measured upto 24 hrs by LC-MS/MS analysis; assay type: ADME, organism-based; parameters: dose 3 mg/kg, time < 24 hrs, route ig; details: in vivo, po
[17] = Apparent volume of distribution during terminal state in Sprague-Dawley rat at 3 mg/kg, IG measured upto 24 hrs by LC-MS/MS analysis; assay type: ADME, organism-based; details: in vivo, po, read-out: Vz/F
[18] = Tmax in Sprague-Dawley rat at 3 mg/kg, IG measured upto 24 hrs by LC-MS/MS analysis; assay type: ADME, organism-based; details: in vivo, po

IC50 [3] [nM] | IC50 [4] [nM] | Structure (SMILES) | further results
– | – | CN1CCC(N(Cc2ccc(F)cn2)C(=O)NCc2ccc(OCC(F)(F)F)cc2)CC1 | Activity [9]: Active
> 500 | > 500 | CC(C)COc1ccc(CNC(=O)N(Cc2cccc3[nH]cnc23)C2CCN(C)CC2)cc1 | Ratio IC50 [10]: > 10; Ratio IC50 [11]: > 15
– | – | CC(C)COc1ccc(CNC(=O)N(Cc2ccc(F)cc2)C2CCN(C)CC2)cc1 | Activity [12]: Active
> 500 | > 500 | CC(C)COc1ccc(CNC(=O)N(Cc2ccc(F)nc2)C2CCN(C)CC2)cc1 | –
134 | 125 | CN1CCC(N(Cc2ccc(F)cn2)C(=O)NCc2ccc(OCC(F)(F)F)c(Cl)c2)CC1 | –
159 | 139 | CC(C)COc1ccc(CNC(=O)N(Cc2ccc(F)cc2)C2CC(N(C)C)C2)cc1 (stereo not given) | –
8.3 | 26.4 | CC(C)Cc1ccc(CNC(=O)N(Cc2ccc(F)cn2)C2CCN(C)CC2)cc1 | –
– | – | CC(C)COc1ccc(CNC(=O)N(Cc2ccc(F)cc2)C2CCN(C)CC2)cc1.O=C(O)C(O)C(O)C(=O)O | AUC(0-t) at 24 h [13]: 0.0786 µM·h; half-life [14]: 1.28 h; MRT last at 24 h [15]: 1.82 h; Cmax [16]: 43.3 nM; Vd/F [17]: 0.155 L/kg; Tmax [18]: 0.5 h
> 500 | > 500 | CC(C)COc1ccc(CNC(=O)N(Cc2cccc3sccc23)C2CCN(C)CC2)cc1 | Ratio IC50 [10]: > 10; Ratio IC50 [11]: > 15
30.5 | 27.3 | CN1CCC(N(Cc2ccc(F)cn2)C(=O)NCc2ccc(OCC(F)(F)F)c(C(F)(F)F)c2)CC1 | –
– | – | CC(C)COc1ccc(CNC(=O)N(Cc2ccc(F)cn2)C2CCN(C)CC2)cc1 | Ratio IC50 [10]: 2; Ratio IC50 [11]: 3
> 500 | 75.4 | CC(C)COc1ccc(CNC(=O)N(Cc2ccc(F)cc2)C2CCN(CCN(C)C)CC2)cc1 | –
86.4 | 252 | CC(C)COc1ccc(CNC(=O)N(Cc2ccc(F)cc2)C2CCN(CC(=O)N(C)C)CC2)cc1 | –

Structure (SMILES) | IC50 [3] [nM] | IC50 [4] [nM] | further results
CN1CCC(N(Cc2ccc(F)cn2)C(=O)NCc2ccc(OCCCF)cc2)CC1 | 3.05 | 1.93 | CLint scaled at 100 µM [1]: < 6.7 mL/min/kg; CLint scaled at 100 µM [2]: < 13.4 mL/min/kg; half-life at 100 µM [5]: > 3.1 h; remaining at 100 µM [6]: 80.4%; remaining at 100 µM [7]: 87.8%; half-life at 100 µM [8]: > 3.1 h
